# Measurements published in PubChem BioAssay (NCI).
#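 Grown in 96-well plates, cells were treated for 48 hours with each compound at five concentrations. Insufficient inhibition: endpoint recorded as highest concentration tested. Here, GI50 denotes the concentration required for 50% inhibition of growth. Definition used: TGI = concentration required for complete inhibition of growth.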
# Columns and labels:
# Experiment in all cases: DTP human tumour cell line panel, 48 h
# [1] = system: HOP-92 NSCLC
# [2] = system: NCI/ADR-RES ovarian
# [3] = system: EKVX NSCLC
# [4] = system: CCRF-CEM leukemia
# [5] = system: SK-MEL-28 melanoma
# [6] = system: DU-145 prostate
# [7] = system: SK-MEL-2 melanoma
# [8] = system: SR leukemia
# [9] = system: MOLT-4 leukemia
# [10] = system: KM12 colon
# [11] = system: OVCAR-3 ovarian
# [12] = system: MDA-MB-231 breast
# [13] = system: SF-268 CNS
# [14] = system: SNB-19 CNS
# [15] = system: SW-620 colon
# [16] = system: OVCAR-8 ovarian
# [17] = system: A498 renal
# [18] = system: COLO 205 colon
# [19] = system: SK-MEL-5 melanoma
# [20] = system: U251 CNS
# [21] = system: SNB-75 CNS
# [22] = system: MDA-N
# [23] = system: LOX IMVI melanoma
# [24] = system: TK-10 renal
# [25] = system: UACC-257 melanoma
# [26] = system: HCT-15 colon
# [27] = system: OVCAR-5 ovarian
# [28] = system: SF-539 CNS
# [29] = system: HT29 colon
# [30] = system: ACHN renal
# [31] = system: CAKI-1 renal
# [32] = system: NCI-H23 lung
# [33] = system: M14 melanoma
# [34] = system: BT-549 breast
# [35] = system: 786-0 renal
# [36] = system: HOP-62 NSCLC
# [37] = system: SF-295 CNS
# [38] = system: MDA-MB-435
# [39] = system: MCF7 breast
# [40] = system: A549 NSCLC
# [41] = system: RPMI-8226 leukemia
# [42] = system: RXF 393 renal
# [43] = system: NCI-H226 lung
# [44] = system: UO-31 renal
# [45] = system: K-562 leukemia
# [46] = system: MALME-3M melanoma
# [47] = system: SN12C renal
# [48] = system: HL-60(TB) leukemia
# [49] = system: PC-3 prostate
# [50] = system: IGROV1 ovarian
# [51] = system: HCC-2998 colon
# [52] = system: OVCAR-4 ovarian
# [53] = system: HCT-116 colon
# [54] = system: NCI-H460 lung
# [55] = system: UACC-62 melanoma
# [56] = system: SK-OV-3 ovarian
# [57] = system: T-47D breast
# [58] = system: HS 578T breast
# [59] = system: NCI-H522 lung
smiles,measurement,setting,value
C[Si](C)(OCCS(=O)(=O)O)OC(=C1S(=O)(=O)OCCOS1(=O)=O)c1cccc2ccccc12,TGI,[1],> 100 µM
same,TGI,[2],> 100 µM
same,TGI,[3],> 100 µM
same,TGI,[4],> 100 µM
same,TGI,[5],> 100 µM
same,TGI,[6],> 100 µM
same,TGI,[7],> 100 µM
same,TGI,[8],> 100 µM
same,TGI,[9],> 100 µM
same,TGI,[10],> 100 µM
same,TGI,[11],> 100 µM
same,TGI,[12],> 100 µM
same,TGI,[13],> 100 µM
same,TGI,[14],> 100 µM
same,TGI,[15],> 100 µM
same,TGI,[16],> 100 µM
same,TGI,[17],> 100 µM
same,TGI,[18],> 100 µM
same,TGI,[19],> 100 µM
same,TGI,[20],> 100 µM
same,TGI,[21],> 100 µM
same,TGI,[22],> 100 µM
same,TGI,[23],> 100 µM
same,TGI,[24],> 100 µM
same,TGI,[25],> 100 µM
same,TGI,[26],> 100 µM
same,TGI,[27],> 100 µM
same,TGI,[28],> 100 µM
same,TGI,[29],> 100 µM
same,TGI,[30],> 100 µM
same,TGI,[31],> 100 µM
same,TGI,[32],> 100 µM
same,TGI,[33],> 100 µM
same,TGI,[34],> 100 µM
same,TGI,[35],> 100 µM
same,TGI,[36],> 100 µM
same,TGI,[37],> 100 µM
same,TGI,[38],> 100 µM
same,TGI,[39],> 100 µM
same,TGI,[40],> 100 µM
same,TGI,[41],> 100 µM
same,TGI,[42],> 100 µM
same,TGI,[43],> 100 µM
same,TGI,[44],> 100 µM
same,TGI,[45],> 100 µM
same,TGI,[46],> 100 µM
same,TGI,[47],> 100 µM
same,TGI,[48],36.9 µM
same,TGI,[49],> 100 µM
same,TGI,[50],> 100 µM
same,TGI,[51],> 100 µM
same,TGI,[52],> 100 µM
same,TGI,[53],> 100 µM
same,TGI,[54],> 100 µM
O=S(=O)(c1ccccc1)C1(CCC2OCCO2)C=CC2(CC1)OCCO2 (stereo not given),TGI,[1],> 100 µM
same,TGI,[2],> 100 µM
same,TGI,[3],> 100 µM
same,TGI,[4],> 100 µM
same,TGI,[5],> 100 µM
same,TGI,[6],> 100 µM
same,TGI,[8],> 100 µM
same,TGI,[9],> 100 µM
same,TGI,[55],> 100 µM
same,TGI,[11],> 100 µM
same,TGI,[12],> 100 µM
same,TGI,[13],> 100 µM
same,TGI,[14],> 100 µM
same,TGI,[15],> 100 µM
same,TGI,[16],> 100 µM
same,TGI,[17],> 100 µM
same,TGI,[18],> 100 µM
same,TGI,[19],> 100 µM
same,TGI,[20],> 100 µM
same,TGI,[21],> 100 µM
same,TGI,[22],> 100 µM
same,TGI,[24],> 100 µM
same,TGI,[25],> 100 µM
same,TGI,[26],> 100 µM
same,TGI,[27],> 100 µM
same,TGI,[29],> 100 µM
same,TGI,[30],> 100 µM
same,TGI,[56],> 100 µM
same,TGI,[32],> 100 µM
same,TGI,[33],> 100 µM
same,TGI,[34],> 100 µM
same,TGI,[57],> 100 µM
same,TGI,[35],> 100 µM
same,TGI,[36],> 100 µM
same,TGI,[37],> 100 µM
same,TGI,[38],> 100 µM
same,TGI,[39],> 100 µM
same,TGI,[40],> 100 µM
same,TGI,[41],> 100 µM
same,TGI,[43],> 100 µM
same,TGI,[44],> 100 µM
same,TGI,[45],> 100 µM
same,TGI,[46],> 100 µM
same,TGI,[47],> 100 µM
same,TGI,[48],> 100 µM
same,TGI,[50],> 100 µM
same,TGI,[51],> 100 µM
same,TGI,[52],> 100 µM
same,TGI,[53],> 100 µM
same,TGI,[54],> 100 µM
Cc1cc(O)cc(C)c1/C=C/c1cncc(-c2nn[nH]n2)c1,GI50,[1],> 25 µM
same,TGI,[1],> 25 µM
same,GI50,[2],> 25 µM
same,TGI,[2],> 25 µM
same,GI50,[3],> 25 µM
same,TGI,[3],> 25 µM
same,GI50,[4],> 25 µM
same,TGI,[4],> 25 µM
same,GI50,[58],> 25 µM
same,TGI,[58],> 25 µM
same,GI50,[5],> 25 µM
same,TGI,[5],> 25 µM
same,GI50,[6],> 25 µM
same,TGI,[6],> 25 µM
same,GI50,[59],> 25 µM
same,TGI,[59],> 25 µM
same,GI50,[7],> 25 µM
same,TGI,[7],> 25 µM
same,GI50,[8],> 25 µM
same,TGI,[8],> 25 µM
same,GI50,[9],> 25 µM
same,TGI,[9],> 25 µM
same,GI50,[55],> 25 µM
same,TGI,[55],> 25 µM
same,GI50,[10],> 25 µM
same,TGI,[10],> 25 µM
same,GI50,[11],> 25 µM
same,TGI,[11],> 25 µM
same,GI50,[12],> 25 µM
same,TGI,[12],> 25 µM
same,GI50,[13],> 25 µM
same,TGI,[13],> 25 µM
same,GI50,[14],> 25 µM
same,TGI,[14],> 25 µM
same,GI50,[15],> 25 µM
same,TGI,[15],> 25 µM
same,GI50,[16],> 25 µM
same,TGI,[16],> 25 µM
same,GI50,[17],> 25 µM
same,TGI,[17],> 25 µM
same,GI50,[18],> 25 µM
same,TGI,[18],> 25 µM
same,GI50,[19],> 25 µM
same,TGI,[19],> 25 µM
same,GI50,[20],> 25 µM
same,TGI,[20],> 25 µM
same,GI50,[21],> 25 µM
same,TGI,[21],> 25 µM
same,GI50,[23],> 25 µM
same,TGI,[23],> 25 µM
same,GI50,[24],> 25 µM
same,TGI,[24],> 25 µM
same,GI50,[25],> 25 µM
same,TGI,[25],> 25 µM
same,GI50,[26],> 25 µM
same,TGI,[26],> 25 µM
same,GI50,[27],> 25 µM
same,TGI,[27],> 25 µM
same,GI50,[28],> 25 µM
same,TGI,[28],> 25 µM
same,GI50,[29],> 25 µM
same,TGI,[29],> 25 µM
same,GI50,[30],> 25 µM
same,TGI,[30],> 25 µM
same,GI50,[56],> 25 µM
same,TGI,[56],> 25 µM
same,GI50,[31],> 25 µM
same,TGI,[31],> 25 µM
same,GI50,[32],> 25 µM
same,TGI,[32],> 25 µM
same,GI50,[33],> 25 µM
same,TGI,[33],> 25 µM
same,GI50,[34],> 25 µM
same,TGI,[34],> 25 µM
same,GI50,[57],> 25 µM
same,TGI,[57],> 25 µM
same,GI50,[35],> 25 µM
same,TGI,[35],> 25 µM
same,GI50,[36],> 25 µM
same,TGI,[36],> 25 µM
same,GI50,[37],> 25 µM
same,TGI,[37],> 25 µM
same,GI50,[38],> 25 µM
same,TGI,[38],> 25 µM
same,GI50,[39],> 25 µM
same,TGI,[39],> 25 µM
same,GI50,[40],> 25 µM
same,TGI,[40],> 25 µM
same,GI50,[41],> 25 µM
same,TGI,[41],> 25 µM
same,GI50,[42],> 25 µM
same,TGI,[42],> 25 µM
same,GI50,[43],> 25 µM
same,TGI,[43],> 25 µM
same,GI50,[44],> 25 µM
same,TGI,[44],> 25 µM
same,GI50,[45],> 25 µM
same,TGI,[45],> 25 µM
same,GI50,[46],> 25 µM
same,TGI,[46],> 25 µM
same,GI50,[47],> 25 µM
same,TGI,[47],> 25 µM
same,GI50,[48],> 25 µM
same,TGI,[48],> 25 µM
same,GI50,[49],> 25 µM
same,TGI,[49],> 25 µM
same,GI50,[50],> 25 µM
same,TGI,[50],> 25 µM
same,GI50,[51],> 25 µM
same,TGI,[51],> 25 µM
same,GI50,[52],> 25 µM
same,TGI,[52],> 25 µM
same,GI50,[53],> 25 µM
same,TGI,[53],> 25 µM
same,GI50,[54],> 25 µM
same,TGI,[54],> 25 µM
